Source: the supplement of paper PMC5908809

Experiments:
NK-92 (IL-2 2.5 ng/mL) [1] = test: drug sensitivity score (DSS) (DSS units); higher = more sensitive; extreme values may be limits of the assay; details: 72 h
KAI3 (IL-2 2.5 ng/mL) [2] = test: as above; details: 72 h
YT (IL-2 2.5 ng/mL) [3] = test: as above; details: 72 h
NKL (IL-2 2.5 ng/mL) [4] = test: as above; details: 72 h
[5] = system: normal primary NK cells, pool 1 (3 donors) (IL-2 2.5 ng/mL); test: as above; details: 72 h
[6] = system: normal primary NK cells, pool 1 (3 donors), resting (IL-2 0 ng/mL); test: as above; details: 72 h
[7] = system: normal primary NK cells, pool 3 (3 donors) (IL-2 2.5 ng/mL); test: as above; details: 72 h
IMC-1 (IL-2 20 ng/mL) [8] = test: as above; details: 72 h
DERL-7 (IL-2 2.5 ng/mL) [9] = test: as above; details: 72 h
NK-YS (IL-2 2.5 ng/mL) [10] = test: as above; details: 72 h
KHYG-1 (IL-2 2.5 ng/mL) [11] = test: as above; details: 72 h
[12] = system: normal primary NK cells, pool 2 (3 donors) (IL-2 2.5 ng/mL); test: as above; details: 72 h
SNK-6 (IL-2 2.5 ng/mL) [13] = test: as above; details: 72 h
[14] = system: normal NK cells expanded with K562-aAPC; test: percent inhibition of viability; higher = more inhibition; details: 72 h, IL-2 2.5 ng/mL
Procedure: (§1)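 Drug sensitivity and resistance testing on K562-aAPC-expanded normal NK cells: 5 concentrations (10-fold steps over a 10,000-fold range), 72 h at 37 °C, viability by CellTiter-Glo normalised to DMSO and benzethonium chloride controls; DSS from the fitted curve.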

[15] = system: normal NK cells expanded with K562-aAPC; test: drug sensitivity score (DSS) (DSS units); higher = more sensitive; extreme values may be limits of the assay; details: 72 h; IL-2 2.5 ng/mL
Procedure: as §1

NK-92 (IL-2 2.5 ng/mL) [16] = test: percent inhibition of viability; higher = more inhibition; details: 72 h
KAI3 (IL-2 2.5 ng/mL) [17] = test: as above; details: 72 h
YT (IL-2 2.5 ng/mL) [18] = test: as above; details: 72 h
NKL (IL-2 2.5 ng/mL) [19] = test: as above; details: 72 h
[20] = system: normal primary NK cells, pool 1 (3 donors) (IL-2 2.5 ng/mL); test: as above; details: 72 h
[21] = system: normal primary NK cells, pool 1 (3 donors), resting (IL-2 0 ng/mL); test: as above; details: 72 h
[22] = system: normal primary NK cells, pool 3 (3 donors) (IL-2 2.5 ng/mL); test: as above; details: 72 h
IMC-1 (IL-2 20 ng/mL) [23] = test: as above; details: 72 h
DERL-7 (IL-2 2.5 ng/mL) [24] = test: as above; details: 72 h
NK-YS (IL-2 2.5 ng/mL) [25] = test: as above; details: 72 h
KHYG-1 (IL-2 2.5 ng/mL) [26] = test: as above; details: 72 h
[27] = system: normal primary NK cells, pool 2 (3 donors) (IL-2 2.5 ng/mL); test: as above; details: 72 h
SNK-6 (IL-2 2.5 ng/mL) [28] = test: as above; details: 72 h

CC[C@@]1(O)C(=O)OCc2c1cc1n(c2=O)Cc2cc3c(CN(C)C)c(O)ccc3nc2-1 [Topotecan] (max concentration tested 10000 nM)
Details	drug sensitivity score
DERL-7 (IL-2 2.5 ng/mL) [9]	26.9
IMC-1 (IL-2 20 ng/mL) [8]	30.6
KAI3 (IL-2 2.5 ng/mL) [2]	28.5
KHYG-1 (IL-2 2.5 ng/mL) [11]	30.1
NK-92 (IL-2 2.5 ng/mL) [1]	32.8
NK-YS (IL-2 2.5 ng/mL) [10]	29.2
NKL (IL-2 2.5 ng/mL) [4]	29.9
SNK-6 (IL-2 2.5 ng/mL) [13]	29
YT (IL-2 2.5 ng/mL) [3]	27.7
[5]	10.3
[6]	4.46
[7]	9.14
[12]	8.28
[15]	18.3

percent inhibition of viability [%]
Details	1 nM	10 nM	100 nM	1000 nM	10000 nM
DERL-7 (IL-2 2.5 ng/mL) [24]	-5.89	8.74	69.9	96.4	100
IMC-1 (IL-2 20 ng/mL) [23]	-3.93	2.9	98.1	99.6	100
KAI3 (IL-2 2.5 ng/mL) [17]	-7.96	6.65	82.9	69.8	100
KHYG-1 (IL-2 2.5 ng/mL) [26]	-8.76	-0.99	98	104	104
NK-92 (IL-2 2.5 ng/mL) [16]	-7.93	14.4	98	102	105
NK-YS (IL-2 2.5 ng/mL) [25]	-4.31	2.83	91.2	94.4	104
NKL (IL-2 2.5 ng/mL) [19]	-16.1	0.22	95.8	101	97.5
SNK-6 (IL-2 2.5 ng/mL) [28]	-7.26	-5.12	93	96.6	99.4
YT (IL-2 2.5 ng/mL) [18]	-6.41	1.19	83.4	102	105
[14]	-4.37	0.95	51.7	58.8	99.9
[20]	-0.98	18.9	12.2	42.5	84.4
[21]	-1.44	14.8	4.57	2.84	73.8
[22]	-3.05	6.63	20.6	31.7	84.1
[27]	-7.25	5.21	15.2	31.4	85.2

Cc1cc(Nc2cc(N3CCN(C)CC3)nc(Sc3ccc(NC(=O)C4CC4)cc3)n2)n[nH]1 [Tozasertib] (max concentration tested 10000 nM)
Details	drug sensitivity score
DERL-7 (IL-2 2.5 ng/mL) [9]	23.6
IMC-1 (IL-2 20 ng/mL) [8]	17.4
KAI3 (IL-2 2.5 ng/mL) [2]	11.6
KHYG-1 (IL-2 2.5 ng/mL) [11]	16.6
NK-92 (IL-2 2.5 ng/mL) [1]	11.4
NK-YS (IL-2 2.5 ng/mL) [10]	19.2
NKL (IL-2 2.5 ng/mL) [4]	2.42
SNK-6 (IL-2 2.5 ng/mL) [13]	20.9
YT (IL-2 2.5 ng/mL) [3]	5.97
[5]	3.05
[6]	0.14
[7]	0.53
[12]	2.02
[15]	9.96

percent inhibition of viability [%]
Details	1 nM	10 nM	100 nM	1000 nM	10000 nM
DERL-7 (IL-2 2.5 ng/mL) [24]	3.54	-3.04	72.5	62	82
IMC-1 (IL-2 20 ng/mL) [23]	-4.29	1.42	24	78	98
KAI3 (IL-2 2.5 ng/mL) [17]	-4.42	3.12	20.6	48.2	71.8
KHYG-1 (IL-2 2.5 ng/mL) [26]	-4.48	2.48	32.5	67.5	85.3
NK-92 (IL-2 2.5 ng/mL) [16]	-7.92	-11.5	9.53	52.9	83.8
NK-YS (IL-2 2.5 ng/mL) [25]	-6.33	0.35	56.9	67.3	60.3
NKL (IL-2 2.5 ng/mL) [19]	-9.16	-8.33	-3.2	4.79	34.7
SNK-6 (IL-2 2.5 ng/mL) [28]	-3.9	3.63	58.1	74.3	61.7
YT (IL-2 2.5 ng/mL) [18]	-3.46	-2.16	13.1	25.8	47.4
[14]	-7.6	-9.83	27.1	35.3	38.2
[20]	-7.78	-12.4	-6.71	5.08	43.4
[21]	2.84	-2.46	-18	-4.6	15.2
[22]	-7.32	-4.94	0.04	-0.07	19.2
[27]	-9.84	-5.4	-5.23	-0.34	41.1
